From ChEMBL document CHEMBL1201862, “PubChem BioAssay data set” (2004)
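How tested: cells in 96-well plates exposed to compound for 48 hours at five concentrations. GI50 is the concentration that inhibits growth by half.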 Calls of active or inactive are those of the source. No stated cut-off is given here; in the data, active = GI50 up to about 1.1 µM and inactive = higher.

Legend:
Experiment in all cases: NCI anticancer screen, dose series, 48 h
BT-549 = system: BT-549
NCI-H226 = system: NCI-H226
SN12C = system: SN12C
NCI-H460 = system: NCI-H460
A498 = system: A498
SF-539 = system: SF-539
HCT-15 = system: HCT-15
SK-MEL-2 = system: SK-MEL-2
SF-268 = system: SF-268
ACHN = system: ACHN
HCC 2998 = system: HCC 2998
COLO 205 = system: COLO 205
RPMI-8226 = system: RPMI-8226
UACC-257 = system: UACC-257
HL-60 = system: HL-60
SNB-75 = system: SNB-75
SR = system: SR
TK-10 = system: TK-10
MDA-N = system: MDA-N

| Structure (SMILES) | GI50 (BT-549) | GI50 (NCI-H226) | GI50 (SN12C) | GI50 (NCI-H460) | GI50 (A498) | GI50 (SF-539) | GI50 (HCT-15) [µM] | GI50 (SK-MEL-2) | GI50 (SF-268) | GI50 (ACHN) | GI50 (HCC 2998) | GI50 (COLO 205) | GI50 (RPMI-8226) | GI50 (UACC-257) | GI50 (HL-60) | GI50 (SNB-75) | GI50 (SR) | GI50 (TK-10) | GI50 (MDA-N) |
| --- | --- | --- | --- | --- | --- | --- | --- | --- | --- | --- | --- | --- | --- | --- | --- | --- | --- | --- | --- |
| Cc1ccc(Nc2ncnc3sc(SCc4ccccc4)nc23)cc1 | > 100 µM (inactive) | > 100 µM (inactive) | > 100 µM (inactive) | > 100 µM (inactive) | 8.81 µM (inactive) | > 100 µM (inactive) | 57.7 | > 100 µM (inactive) | > 100 µM (inactive) | 32 µM (inactive) | 33.7 µM (inactive) | > 100 µM (inactive) | 48 µM (inactive) | > 100 µM (inactive) | > 100 µM (inactive) | > 100 µM (inactive) | > 100 µM (inactive) | 52.4 µM (inactive) | > 100 µM (inactive) |
| Nc1n[n+]2cc(-c3ccccc3)n(CC(=O)c3ccccc3)c2s1 | 19.6 µM (inactive) | 32.4 µM (inactive) | 42.6 µM (inactive) | > 100 µM (inactive) | > 100 µM (inactive) | 20.1 µM (inactive) | 44.7 | 15.5 µM (inactive) | 20.3 µM (inactive) | 65.2 µM (inactive) | 15 µM (inactive) | 15.3 µM (inactive) | 17.1 µM (inactive) | 25.5 µM (inactive) | 35.5 µM (inactive) |  | 18.4 µM (inactive) | 23.6 µM (inactive) | 34.4 µM (inactive) |
| COc1cc(/C=C2\C(=O)N(c3cccc([N+](=O)[O-])c3)C(c3ccccc3)S2(=O)=O)cc(OC)c1OC (stereo not drawn) | > 100 µM (inactive) | > 100 µM (inactive) | > 100 µM (inactive) | > 100 µM (inactive) | > 100 µM (inactive) |  | > 100 | > 100 µM (inactive) |  | > 100 µM (inactive) | > 100 µM (inactive) | > 100 µM (inactive) | 64.9 µM (inactive) | > 100 µM (inactive) | 84.7 µM (inactive) | > 100 µM (inactive) | 37.2 µM (inactive) | > 100 µM (inactive) | 31.1 µM (inactive) |
| CC1=NN2C(=N)/C(=C/c3ccco3)C(=O)N=C2S1 | > 100 µM (inactive) | > 100 µM (inactive) | > 100 µM (inactive) | > 100 µM (inactive) | > 100 µM (inactive) | > 100 µM (inactive) | > 100 | > 100 µM (inactive) | > 100 µM (inactive) | > 100 µM (inactive) | > 100 µM (inactive) | > 100 µM (inactive) | > 100 µM (inactive) | > 100 µM (inactive) | > 100 µM (inactive) | > 100 µM (inactive) | 50.4 µM (inactive) | > 100 µM (inactive) | > 100 µM (inactive) |
| CC1(C)C2CC3C4CC5(Nc6ccccc6C5N41)[C@]3(C)CC2=O (stereo partly drawn) | > 50 µM (inactive) | > 50 µM (inactive) | > 50 µM (inactive) | > 50 µM (inactive) | > 50 µM (inactive) | > 50 µM (inactive) | > 50 | > 50 µM (inactive) | > 50 µM (inactive) | > 50 µM (inactive) | > 50 µM (inactive) | > 50 µM (inactive) | > 50 µM (inactive) | > 50 µM (inactive) | > 50 µM (inactive) | > 50 µM (inactive) | > 50 µM (inactive) | > 50 µM (inactive) | > 50 µM (inactive) |
| CC(C)/C(Cl)=N/OC(=O)Nc1ccc(OC(F)(F)F)cc1 | 16.3 µM (inactive) | 11.1 µM (inactive) | 16.4 µM (inactive) | 16.6 µM (inactive) | 18.6 µM (inactive) | 17.3 µM (inactive) | 6.12 | 14.2 µM (inactive) | 23.2 µM (inactive) | 12.6 µM (inactive) | 16.7 µM (inactive) | 1.84 µM (inactive) | 2.49 µM (inactive) | 13.7 µM (inactive) | 1.97 µM (inactive) | 15.6 µM (inactive) | 1.94 µM (inactive) | 15.9 µM (inactive) | 13.4 µM (inactive) |
| CCOC(=O)c1cc([N+](=O)[O-])c(Sc2ncnc3nc[nH]c23)c([N+](=O)[O-])c1 | 6.32 µM (inactive) | 5.61 µM (inactive) | 14.1 µM (inactive) | 7.5 µM (inactive) | 12.7 µM (inactive) | 3.09 µM (inactive) | 2.48 | 8.89 µM (inactive) | 4.5 µM (inactive) | 6.85 µM (inactive) | 17.8 µM (inactive) | 1.66 µM (inactive) | 0.865 µM (active) | 7.28 µM (inactive) | 4.19 µM (inactive) |  | 3.24 µM (inactive) | 1.09 µM (active) | 2.75 µM (inactive) |
| CCOP(=O)(C/C=C/Cn1nc(Br)c(=O)[nH]c1=O)OCC | > 100 µM (inactive) | > 100 µM (inactive) | > 100 µM (inactive) | > 100 µM (inactive) | > 100 µM (inactive) | > 100 µM (inactive) | > 100 | > 100 µM (inactive) | > 100 µM (inactive) | > 100 µM (inactive) | > 100 µM (inactive) | > 100 µM (inactive) | > 100 µM (inactive) | > 100 µM (inactive) | > 100 µM (inactive) | > 100 µM (inactive) | > 100 µM (inactive) | > 100 µM (inactive) | > 100 µM (inactive) |
